# From patent US20090209536A1, “AMINOQUINAZOLINE CANNABINOID RECEPTOR MODULATORS FOR TREATMENT OF DISEASE” (KALYPSYS, INC., priority 2007, published 2009)
# Legend:
# [1] = biological target: T1, human cannabinoid receptor type 2 (Homo sapiens, UniProt P34972); assay: Human CB2 Radioligand Binding Assay; details: competition with [3H] CP-55,940; membranes from stably transfected CHO CB2 cells; read-out: CB2 Ligand Binding Asssay EC50
# T1 construct: expressed in transfected cells; membrane preparation
# Method: 1. Human CB2 Radioligand Binding Assay
# This receptor binding filtration assay measures the receptor-ligand interactions of compounds by measuring ability to compete with a radiolabeled control ligand. Reactions were performed in 96 deep-well plate (Costar 3961) with a final volume of 600 ul. Compounds were added to each well either in single point (10 uM final) or dose-response. Compounds were delivered in DMSO or further diluted in incubation buffer to a final assay DMSO concentration of 1%. Incubation buffer (50 mM Tris-HCl pH 7.4, 2.5 mM EGTA, 5 mM MgCl2, 5.0 mg/ml fatty acid free BSA) was added to each well. Following buffer addition, [^3H] CP-55,940 was added. Tritiated CP-55,940 (Perkin Elmer) was used at the Kd determined from prior saturation binding experiments conducted on each lot of membranes. Membrane preparations from stably transfected CHO CB2 cells were added and the reaction was incubated for 90 minutes at 30° C. Unifilter GF/C filtration plates (Perkin Elmer) were pre-wet with 0.05% polyethylenimine. Samples were transferred to Unifilter plates and separation of unbound radioligand was achieved using a vacuum manifold (Millipore). Following thorough washing with 5 ml/well ice-cold wash buffer (50 mM Tris-HCl pH 7.4, 2.5 mM EGTA, 5 mM MgCl2, 0.5 mg/ml fatty acid free BSA), filterplates were dried completely. Betaplate Scint Scintillation cocktail (25 ul, Perkin Elmer) was applied and plates were read using Microbeta Trilux (Wallac). Data analysis was performed in Spotfire. Activity of the positive control (100 nM CP-55,940) was set as 100% efficacy.
# Stable recombinant Human CB2-CHO cell membranes were prepared as follows: Chinese Hamster Ovarian (CHO) cells stably expressing human cannabinoid receptor type 2 were grown to 90% confluence in 15×100 mm culture dishes under puromycin selection (5 ug/ml) Cells were harvested from culture flasks using a cell scraper, were washed once with cold phosphate-buffered saline (calcium and magnesium free) and pelleted by centrifugation at 400 g for 5 min at 4° C. Cell pellet was washed once with cold phosphate-buffered saline and centrifuged again at 400×g for 5 min at 4° C. The pellet was suspended in ice-cold lysis buffer (10 mM Tris-HCl, 0.1 mM EDTA, containing […], pH 7.5) and homogenized in a chilled 7 ml glass dounce homogenizer using 50 strokes. The homogenate was centrifuged at 400 g for 15 min at 4° C. The cloudy supernatant was collected and centrifuged at 41000 g for 30 min at 4° C. The resulting pellet was washed with ice-cold sucrose-free lysis buffer and centrifuged again at 41000 g for 30 min at 4° C. The membrane pellet was suspended in sucrose-free storage buffer (10 mm Tris-HCl, 0.1 mM EDTA, pH 7.5) to a concentration of 2-3 mg protein/ml. Aliquots were flash frozen in liquid nitrogen and stored at −80° C. Concentration was determined using Dc protein assay kit (Bio-Rad).
# [2] = biological target: T2, human cannabinoid receptor type 1 (Homo sapiens, UniProt P21554); assay: Human CB1 Radioligand Binding Assay (basis of selectivity, CB2 vs. CB1); details: CB1: HEK 293 EBNA cells expressing human CB1; CB2: CHO CB2 membranes
# T2 construct: purchased Perkin Elmer RBHCB1M; host or cells: HEK 293 EBNA cells
# Method: 2. Human CB1 Radioligand Binding Assay
# The incubation buffer was composed of 50 mM Tris-HCl pH 7.4, 2.5 mM EDTA, 5 mM MgCl2, 5.0 mg/ml fatty acid free BSA and the wash buffer was composed of 50 mM Tris-HCl pH 7.4, 2.5 mM EDTA, 5 mM MgCl2, 0.5 mg/ml fatty acid free BSA.
# T1 sequence (P34972 whole entry): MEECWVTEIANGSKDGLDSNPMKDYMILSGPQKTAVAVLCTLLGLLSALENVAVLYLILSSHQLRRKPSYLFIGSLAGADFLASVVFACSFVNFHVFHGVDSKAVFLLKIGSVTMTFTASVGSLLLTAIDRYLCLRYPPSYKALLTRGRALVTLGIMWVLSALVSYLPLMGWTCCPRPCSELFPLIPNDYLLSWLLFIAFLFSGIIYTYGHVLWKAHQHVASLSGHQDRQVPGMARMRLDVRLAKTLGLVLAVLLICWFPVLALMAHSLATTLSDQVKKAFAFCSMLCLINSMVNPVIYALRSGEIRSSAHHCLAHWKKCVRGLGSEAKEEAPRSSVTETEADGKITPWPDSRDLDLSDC
# T2 sequence (P21554 whole entry): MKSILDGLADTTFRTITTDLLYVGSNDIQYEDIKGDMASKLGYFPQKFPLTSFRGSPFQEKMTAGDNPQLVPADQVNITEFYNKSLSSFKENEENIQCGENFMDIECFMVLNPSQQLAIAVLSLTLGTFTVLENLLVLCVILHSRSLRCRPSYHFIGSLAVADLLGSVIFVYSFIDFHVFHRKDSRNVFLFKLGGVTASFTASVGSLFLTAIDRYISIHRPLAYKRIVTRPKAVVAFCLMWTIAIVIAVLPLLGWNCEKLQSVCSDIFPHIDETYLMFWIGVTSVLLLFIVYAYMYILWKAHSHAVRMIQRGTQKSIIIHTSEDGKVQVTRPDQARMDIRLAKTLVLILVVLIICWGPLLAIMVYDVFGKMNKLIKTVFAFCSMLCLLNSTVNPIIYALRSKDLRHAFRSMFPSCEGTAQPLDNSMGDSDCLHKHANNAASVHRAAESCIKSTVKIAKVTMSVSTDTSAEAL
compound,measurement,setting,value
"O=S(=O)(NCc1nc(N2CCCC2)c2ccccc2n1)c1cccc2ccccc12 [Example 1, N-((4-(Pyrrolidin-1-yl)quinazolin-2-yl)methyl)naphthalene-1-sulfonamide]",EC50,[1],< 1 µM
same,"Selectivity, CB2 vs. CB1",[2],+ (+ indicates > 10−fold)
"Cc1cccc2c(N3CCCC3)nc(CNS(=O)(=O)c3cccc4ccccc34)nc12 [Example 2, N-((8-Methyl-4-(pyrrolidin-1-yl)quinazolin-2-yl)methyl)naphthalene-1-sulfonamide]",EC50,[1],< 1 µM
same,"Selectivity, CB2 vs. CB1",[2],+ (+ indicates > 10−fold)
"O=S(=O)(NCc1nc(N2CCCC2)c2ccccc2n1)c1ccccc1 [Example 3, N-((4-(Pyrrolidin-1-yl)quinazolin-2-yl)methyl)benzenesulfonamide]",EC50,[1],< 1 µM
same,"Selectivity, CB2 vs. CB1",[2],+ (+ indicates > 10−fold)
"O=S(=O)(NCc1nc(N2CCCC2)c2ccccc2n1)c1ccc(F)cc1F [Example 4, 2,4-Difluoro-N-((4-(pyrrolidin-1-yl)quinazolin-2-yl)methyl)benzenesulfonamide]",EC50,[1],< 1 µM
same,"Selectivity, CB2 vs. CB1",[2],− (− indicates ≦ 10−fold)
"CN1CCN(c2nc(CNS(=O)(=O)c3cccc4ccccc34)nc3ccccc23)CC1 [Example 5, N-((4-(4-Methylpiperazin-1-yl)quinazolin-2-yl)methyl)naphthalene-1-sulfonamide]",EC50,[1],< 1 µM
same,"Selectivity, CB2 vs. CB1",[2],+ (+ indicates > 10−fold)
"CN1CCN(c2nc(CNS(=O)(=O)c3ccc4ccccc4c3)nc3ccccc23)CC1 [Example 6, N-((4-(4-methylpiperazin-1-yl)quinazolin-2-yl)methyl)naphthalene-2-sulfonamide]",EC50,[1],> 1 µM
same,"Selectivity, CB2 vs. CB1",[2],+ (+ indicates > 10−fold)
"COC(=O)c1sccc1S(=O)(=O)NCc1nc(N2CCCC2)c2ccccc2n1 [Example 7, Methyl 3-(N-((4-(Pyrrolidin-1-yl)quinazolin-2-yl)methyl)sulfamoyl)thiophene-2-carboxylate]",EC50,[1],< 1 µM
same,"Selectivity, CB2 vs. CB1",[2],+ (+ indicates > 10−fold)
"CNC(=O)c1sccc1S(=O)(=O)NCc1nc(N2CCCC2)c2ccccc2n1 [Example 8, N-Methyl-3-(N-((4-(pyrrolidin-1-yl)quinazolin-2-yl)methyl)sulfamoyl)thiophene-2-carboxamide]",EC50,[1],> 1 µM
same,"Selectivity, CB2 vs. CB1",[2],+ (+ indicates > 10−fold)
"CCN(CC)CCNC(=O)c1sccc1S(=O)(=O)NCc1nc(N2CCCC2)c2ccccc2n1 [Example 9, N-(2-(Diethylamino)ethyl)-3-(N-((4-(pyrrolidin-1-yl)quinazolin-2-yl)methyl)sulfamoyl)thiophene-2-carboxamide]",EC50,[1],> 1 µM
same,"Selectivity, CB2 vs. CB1",[2],− (− indicates ≦ 10−fold)
"O=C(NCc1nc(N2CCCC2)c2ccccc2n1)Nc1ccc(Cl)cc1Cl [Example 10, 1-(2,4-Dichlorophenyl)-3-((4-(pyrrolidin-1-yl)quinazolin-2-yl)methyl)urea]",EC50,[1],> 1 µM
same,"Selectivity, CB2 vs. CB1",[2],+ (+ indicates > 10−fold)
"O=C(NCc1nc(N2CCCC2)c2ccccc2n1)Nc1ccc(Cl)c(C(F)(F)F)c1 [Example 11, 1-(4-Chloro-3-(trifluoromethyl)phenyl)-3-((4-(pyrrolidin-1-yl)quinazolin-2-yl)methyl)urea]",EC50,[1],> 1 µM
same,"Selectivity, CB2 vs. CB1",[2],− (− indicates ≦ 10−fold)
"O=C(NCc1nc(N2CCCC2)c2ccccc2n1)c1ccc(Cl)cc1 [Example 12, 4-Chloro-N-((4-(pyrrolidin-1-yl)quinazolin-2-yl)methyl)benzamide]",EC50,[1],> 1 µM
same,"Selectivity, CB2 vs. CB1",[2],− (− indicates ≦ 10−fold)
"Fc1ccc(-c2nc(N3CCCC3)c3ccccc3n2)cc1F [Example 13, 2-(3,4-Difluorophenyl)-4-(pyrrolidin-1-yl)quinazoline]",EC50,[1],< 1 µM
same,"Selectivity, CB2 vs. CB1",[2],− (− indicates ≦ 10−fold)
"Fc1ccc(-c2nc(N3CCCC3)c3ccccc3n2)cc1F [Example 14, 2-(3,4-Difluorophenyl)-4-(pyrrolidin-1-yl)quinazoline]",EC50,[1],> 1 µM
"Fc1ccc(-c2nc(N3CCCCC3)c3ccccc3n2)cc1F [Example 15, 2-(3,4-difluorophenyl)-4-(piperidin-1-yl)quinazoline]",EC50,[1],< 1 µM
same,"Selectivity, CB2 vs. CB1",[2],− (− indicates ≦ 10−fold)
"Fc1ccc(-c2nc(N3CCOCC3)c3ccccc3n2)cc1F [Example 16, 4-(2-(3,4-difluorophenyl)quinazolin-4-yl)morpholine]",EC50,[1],> 1 µM
same,"Selectivity, CB2 vs. CB1",[2],− (− indicates ≦ 10−fold)
"CN(Cc1ccccc1)c1nc(-c2ccc(F)c(F)c2)nc2ccccc12 [Example 17, N-benzyl-2-(3,4-difluorophenyl)-N-methylquinazolin-4-amine]",EC50,[1],> 1 µM
same,"Selectivity, CB2 vs. CB1",[2],− (− indicates ≦ 10−fold)
"CN1CCN(c2nc(-c3ccc(F)c(F)c3)nc3ccccc23)CC1 [Example 18, 2-(3,4-Difluorophenyl)-4-(4-methylpiperazin-1-yl)quinazoline]",EC50,[1],< 1 µM
same,"Selectivity, CB2 vs. CB1",[2],+ (+ indicates > 10−fold)
"CC(=O)N1CCN(c2nc(-c3ccc(F)c(F)c3)nc3ccccc23)CC1 [Example 19, 1-(4-(2-(3,4-Difluorophenyl)quinazolin-4-yl)piperazin-1-yl)ethanone]",EC50,[1],< 1 µM
same,"Selectivity, CB2 vs. CB1",[2],+ (+ indicates > 10−fold)
"CN(Cc1ccccc1)c1nc(C2CCCCC2)nc2ccccc12 [Example 39, N-Benzyl-2-cyclohexyl-N-methylquinazolin-4-amine]",EC50,[1],< 1 µM
"CC(C)(C)c1ccc(-c2nc(NC3CCCCC3)c3ccccc3n2)cc1 [Example 129, 2-(4-tert-Butylphenyl)quinazolin-4-yl cyclohexylamine]",EC50,[1],< 1 µM
"c1ccc2c(N3CCCC3)nc(C3CCCC3)nc2c1 [Example 135, 2-Cyclopentyl-4-pyrrolidin-1-ylquinazoline]",EC50,[1],> 1 µM
"CC(C)(C)c1ccc(Nc2nc(-c3ccc(OC(F)(F)F)cc3)nc3ccccc23)cc1 [Example 143, (4-tert-Butylphenyl)-[2-(4-trifluoromethoxyphenyl)-quinazolin-4-yl]amine]",EC50,[1],> 1 µM
"CN1CCN(c2nc(-c3ccccc3Cl)nc3ccc(Br)cc23)CC1 [Example 183, 6-Bromo-2-(2-chlorophenyl)-4-(4-methylpiperazin-1-yl)quinazoline]",EC50,[1],< 1 µM
"CCOC(=O)N1CCN(c2nc(-c3ccc(Cl)cc3)nc3ccc(Cl)cc23)CC1 [Example 210, Ethyl 4-(6-chloro-2-(4-chlorophenyl)quinazolin-4-yl)piperazine-1-carboxylate]",EC50,[1],> 1 µM
"COC(CNc1nc(-c2ccccc2Cl)nc2ccccc12)OC [Example 230, 2-(2-Chlorophenyl)-N-(2,2-dimethoxyethyl)quinazolin-4-amine]",EC50,[1],> 1 µM
"O=S(=O)(NCc1nc(N2CCOCC2)c2ccccc2n1)c1ccccc1Br [Example 292, 2-Bromo-N-((4-morpholinoquinazolin-2-yl)methyl)benzenesulfonamide]",EC50,[1],< 1 µM
"O=S(=O)(NCc1nc(N2CCOCC2)c2ccccc2n1)c1ccc(Cl)cc1 [Example 293, 4-Chloro-N-((4-morpholinoquinazolin-2-yl)methyl)benzenesulfonamide]",EC50,[1],> 1 µM
"Cc1c(Cl)cccc1S(=O)(=O)NCc1nc(N2CCOCC2)c2ccccc2n1 [Example 295, 3-Chloro-2-methyl-N-((4-morpholinoquinazolin-2-yl)methyl)benzenesulfonamide]",EC50,[1],> 1 µM
"CCOC(=O)N1CCN(c2nc(-c3ccccc3Cl)nc3cc(C(=O)N(CC)CC)ccc23)CC1 [Example 319, Ethyl 4-(2-(2-chlorophenyl)-7-(diethylcarbamoyl)quinazolin-4-yl)piperazine-1-carboxylate]",EC50,[1],> 1 µM
"COC(=O)c1ccc2nc(-c3ccccc3Cl)nc(Nc3ccccc3C)c2c1 [Example 329, Methyl 2-(2-chlorophenyl)-4-(o-tolylamino)quinazoline-6-carboxylate]",EC50,[1],> 1 µM
